Data taken from publication PMC9428248 (2022).

Assays:
[1] = system: XS 38-206 (RNA, mRNA element) GAGACUGAGGGAGGCAGGCGACGAGUUUGAACUGCGGUACCGGCGGGCAUUCAGUGACCUGACAUCCCAGCUCCACAUCACCCCAGGGACAGCAUAUCAGAGCUUUGAACAGGUAGUGAAUGAACUCUUCCGGGAUGGGGUAAACUGGGGUCGCAUUGUGGCCUUUUUCUCCUUC; test: fluorescence enhancement; conditions: 100 mM KCl; 10 mM Tris pH 7.0, 25 °C, 10 µM RNA, 1 µM NMM
[2] = system: Q2 150-206 (RNA, G4) GAGACUAAUGAACUCUUCCGGGAUGGGGUAAACUGGGGUCGCAUUGUGGCCUUUUUCUCCUUC; test: fluorescence enhancement; conditions: 100 mM KCl; 10 mM Tris pH 7.0, 25 °C, 10 µM RNA, 1 µM NMM

CCc1c(C)c2cc3nc(cc4nc(cc5c(CC)c(C)c(cc1[nH]2)n5C)C(C)=C4CCC(=O)O)C(CCC(=O)O)=C3C was tested, and the binding [1] was “yes” and the binding [2] was “yes”.
